Experimental data published in patent publication US20230416330A1, “Optimized GIP Peptide Analogues” (Antag Therapeutics ApS, priority 2019, published 2023).
Where two headings read alike, the source gives them in different places. Starred links: 1 amine or outer side, 2 acyl side, 3 side chain; linkers in the order of their positions; H or OH if unused. Non-standard residues stand in square brackets, D forms with d. Residues, ends and D or L forms follow the SMILES beside them. Groups on a side chain read outwards from the residue. *: point of attachment. C18 diacid = O=C(O)CCCCCCCCCCCCCCCCC(=O)*; C16 diacid = O=C(O)CCCCCCCCCCCCCCC(=O)*; γGlu = O=C(O)[C@H](CCC(=O)[*:2])N[*:1]; Glutaryl = O=C(CCCC(=O)[*:2])[*:1]; AEEA = NCCOCCOCC(=O)O; Aib = CC(C)(N)C(=O)O

Assays:
human GIP receptor = molecular target: T1, human GIP receptor (Homo sapiens, UniProt P48546); test: cAMP assay Alternative 2 (Gaddum assay), antagonist potency pKb; format: cell-based
T1 construct: host or cells: HEK-293 cells, transient transfection (Lipofectamine 2000), cDNA in pCMV-Script vector
T1 sequence (P48546 22-466): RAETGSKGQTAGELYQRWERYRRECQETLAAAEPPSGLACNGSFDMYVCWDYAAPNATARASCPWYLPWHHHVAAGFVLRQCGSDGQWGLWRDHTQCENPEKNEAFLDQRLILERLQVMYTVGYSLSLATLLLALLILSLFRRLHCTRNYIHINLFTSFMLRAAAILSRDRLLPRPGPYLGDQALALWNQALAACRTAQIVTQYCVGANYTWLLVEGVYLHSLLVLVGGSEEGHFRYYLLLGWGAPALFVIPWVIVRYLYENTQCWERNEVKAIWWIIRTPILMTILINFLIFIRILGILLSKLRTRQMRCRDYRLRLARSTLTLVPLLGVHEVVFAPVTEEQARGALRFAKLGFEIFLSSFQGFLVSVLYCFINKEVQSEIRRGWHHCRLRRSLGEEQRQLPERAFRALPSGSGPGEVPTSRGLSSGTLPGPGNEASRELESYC
Protocol: HEK293 cells were cultured in 10% CO2 and 37° C. in Dulbecco's modified Eagle's medium supplemented with 10% fetal bovine serum, 2 mM glutamine, 180 units/ml penicillin, and 45 µg/ml streptomycin. Transient transfection with hGIPR for the CisBio assay from Table 2C was performed by using Lipofectamine 2000.
Antagonist potency (pKb) was estimated in a functional setting. The estimated pKb values were calculated from the shifts of the agonist-concentration-response curves in the presence of a single dose of GIP peptide antagonists using the Gaddum equation: pKb=log(DR-1)-log(B), where DR (EC50′/EC50) is the dose ratio calculated from EC50 of GIP1-42 obtained in the presence and absence (EC50) of antagonist, and B is the antagonist concentration used.
The in vitro functional assessment of compounds towards human GIP receptor was determined in HEK-293 cells transiently expressing the receptor. On the day of the assay, cells were resuspended in HBSS buffer (Gibco, 14025-50) supplemented with […] (Gibco, 15630-106), 0.1% Pluronic F-68 (Gibco, 24040-032) and 0.1% casein (Sigma, C4765), and plated in 384-well plates at a density of 3500 cells/well. The GIP peptide analogues of the present disclosure were diluted in HBSS buffer supplemented with 20 mM HEPES, 0.1% pluronic, 0.1% casein and 500 uM IBMX. […] Increasing dose of agonist (GIP1-42) was subsequently added to cells and incubated for additionally 30 min at 37° C. The intracellular cAMP was quantitatively determined using the CisBio cAMP Dynamic 2 HTRF Assay Kit. The assay is based on a competition between native cAMP produced by cells and cAMP labeled with the dye d2 for binding to a cryptate labeled antibody. The specific signal (i.e. energy transfer signal) is inversely proportional to the concentration of cAMP in the sample.
The cAMP-d2 conjugate and the antibody anti-cAMP-Cryptate, both diluted in lysis buffer provided in the kit, were added to the cells according to the manufacturer's protocol. The resulting competitive assay was incubated for 60 minutes at room temperature, and the signal was detected by using a PerkinElmer Envision® instrument with excitation at 320 nm and emission at 665 nm and 620 nm. The HTRF ratio (emission at 665 nm/620 nm*10,000) is inversely proportional to the amount of cAMP present and is converted to nM cAMP per well using a cAMP standard curve.

[1] = Physical stability: fibril formation in Thioflavin T (ThT) assay with agitation; format: physicochemical; conditions: 25° C., agitation
Procedure, shortened: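 Read-out is continuous ThT fluorescence at 486 nm, with lag time taken where signal reaches 10% between pre- and post-transition baselines. Filtered samples (1, 5, 7.5 or 15 mg/ml; pH 7.4 phosphate buffer or NaOH-adjusted water) were stressed at 25° C. by orbital rotation at 300 rpm with one silica bead per well.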

[2] = Solubility by visual inspection of peptide solutions; format: physicochemical
Procedure, shortened: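 Solubility scored by eye: clear, colorless appearance after gentle mixing. Samples prepared at 1, 5, 7.5 or 15 mg/ml in either pH 7.4 water (NaOH-adjusted) or 50 mM sodium phosphate buffer, pH 7.4.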

[3] = Table 2C, Gaddum equation, single antagonist dose, HEK-293 hGIPR, read-out: nM (Kb)

## CC[C@H](C)[C@H](NC(=O)[C@H](CCCCN)NC(=O)[C@H](CCC(=O)O)NC(=O)[C@H](CC(C)C)NC(=O)C(C)(C)NC(=O)[C@@H](NC(=O)[C@H](CO)NC(=O)[C@H](Cc1ccc(O)cc1)NC(=O)[C@H](CCC(=O)O)NC(=O)[C@H](CO)NC(=O)[C@@H](NC(=O)[C@H](Cc1ccccc1)NC(=O)[C@@H](NC(=O)CNC(=O)CCCC(=O)O)[C@@H](C)O)[C@@H](C)CC)[C@@H](C)CC)C(=O)N[C@@H](CCCCNC(=O)COCCOCCNC(=O)COCCOCCNC(=O)CC[C@H](NC(=O)CCCCCCCCCCCCCCCCC(=O)O)C(=O)O)C(=O)N[C@@H](CCC(N)=O)C(=O)N[C@@H](CCC(N)=O)C(=O)N[C@@H](CCC(=O)O)C(=O)N[C@@H](Cc1ccccc1)C(=O)N[C@H](C(=O)N[C@@H](CCC(=O)O)C(=O)N[C@@H](Cc1c[nH]c2ccccc12)C(=O)N[C@@H](CC(C)C)C(=O)N[C@@H](CC(C)C)C(=O)N[C@@H](C)C(=O)N[C@@H](CCC(N)=O)C(=O)N[C@@H](CCCCN)C(=O)N1CCC[C@H]1C(=O)N[C@@H](CO)C(=O)N[C@@H](CO)C(=O)NCC(=O)N[C@@H](C)C(=O)N1CCC[C@H]1C(=O)N1CCC[C@H]1C(=O)N1CCC[C@H]1C(=O)N[C@@H](CO)C(N)=O)C(C)C [AT713] (Glutaryl-GTFISEYSI[Aib]LEKIK([AEEA-AEEA-γGlu-C18 diacid])QQEFVEWLLAQKPSSGAPPPS-NH2)
Human GIP receptor; [3]
  Kb: 0.31 nM
[1]; 1 mg/ml, TFA, Phosphate (7.4)
  Avr lag time (h): fnd (Fnd = fibrils not detected within experiment time (96 hours) with agitation.)
[1]; 7.5 mg/ml, Na, MilliQ (8)
  Avr lag time (h): fnd (Fnd = fibrils not detected within experiment time (96 hours) with agitation.)
[1]; 15 mg/ml, Na, MilliQ (8)
  Avr lag time (h): fnd (Fnd = fibrils not detected within experiment time (96 hours) with agitation.)
[2]; 1 mg/ml, TFA, Phosphate (7.4)
  Visual appearance: Clear
[2]; 7.5 mg/ml, Na, MilliQ (8)
  Visual appearance: Clear
[2]; 15 mg/ml, Na, MilliQ (8)
  Visual appearance: Clear

## CC[C@H](C)[C@H](NC(=O)[C@H](CCCCN)NC(=O)[C@H](CCC(=O)O)NC(=O)[C@H](CC(C)C)NC(=O)C(C)(C)NC(=O)[C@@H](NC(=O)[C@H](CO)NC(=O)[C@H](Cc1ccc(O)cc1)NC(=O)[C@H](CCC(=O)O)NC(=O)[C@H](CO)NC(=O)[C@@H](NC(=O)[C@H](Cc1ccccc1)NC(=O)[C@@H](NC(=O)CNC(=O)[C@@H](N)CCC(=O)O)[C@@H](C)O)[C@@H](C)CC)[C@@H](C)CC)C(=O)N[C@@H](CCCCNC(=O)C(C)(C)NC(=O)CCCCCCCCCCCCCCC(=O)O)C(=O)N[C@@H](CCC(N)=O)C(=O)N[C@@H](CCC(N)=O)C(=O)N[C@@H](CCC(=O)O)C(=O)N[C@@H](Cc1ccccc1)C(=O)N[C@H](C(=O)N[C@@H](CCC(=O)O)C(=O)N[C@@H](Cc1c[nH]c2ccccc12)C(=O)N[C@@H](CC(C)C)C(=O)N[C@@H](CC(C)C)C(=O)N[C@@H](C)C(=O)N[C@@H](CCC(N)=O)C(=O)N[C@@H](CCCCN)C(=O)N1CCC[C@H]1C(=O)N[C@@H](CO)C(=O)N[C@@H](CO)C(=O)NCC(=O)N[C@@H](C)C(=O)N1CCC[C@H]1C(=O)N1CCC[C@H]1C(=O)N1CCC[C@H]1C(=O)N[C@@H](CO)C(=O)O)C(C)C [AT720] (H-EGTFISEYSI[Aib]LEKIK([Aib-C16 diacid])QQEFVEWLLAQKPSSGAPPPS-OH; N-terminus assumed)
Human GIP receptor; [3]
  Kb: 0.29 nM
[1]; 7.5 mg/ml, Na, MilliQ (8)
  Avr lag time (h): fnd (Fnd = fibrils not detected within experiment time (96 hours) with agitation.)
[1]; 15 mg/ml, Na, MilliQ (8)
  Avr lag time (h): fnd (Fnd = fibrils not detected within experiment time (96 hours) with agitation.)
[2]; 7.5 mg/ml, Na, MilliQ (8)
  Visual appearance: Clear
[2]; 15 mg/ml, Na, MilliQ (8)
  Visual appearance: Clear

## CC[C@H](C)[C@H](NC(=O)[C@H](CCCCN)NC(=O)[C@H](CCC(=O)O)NC(=O)[C@H](CC(C)C)NC(=O)C(C)(C)NC(=O)[C@@H](NC(=O)[C@H](CO)NC(=O)[C@H](Cc1ccc(O)cc1)NC(=O)[C@H](CCC(=O)O)NC(=O)[C@H](CO)NC(=O)[C@@H](NC(=O)[C@H](Cc1ccccc1)NC(=O)[C@@H](NC(=O)CNC(=O)[C@@H](N)CCC(=O)O)[C@@H](C)O)[C@@H](C)CC)[C@@H](C)CC)C(=O)N[C@@H](CCCCNC(=O)CC[C@H](NC(=O)CCCCCCCCCCCCCCC(=O)O)C(=O)O)C(=O)N[C@@H](CCC(N)=O)C(=O)N[C@@H](CCC(N)=O)C(=O)N[C@@H](CCC(=O)O)C(=O)N[C@@H](Cc1ccccc1)C(=O)N[C@H](C(=O)N[C@@H](CCC(=O)O)C(=O)N[C@@H](Cc1c[nH]c2ccccc12)C(=O)N[C@@H](CC(C)C)C(=O)N[C@@H](CC(C)C)C(=O)N[C@@H](C)C(=O)N[C@@H](CCC(N)=O)C(=O)N[C@@H](CCCCN)C(=O)N1CCC[C@H]1C(=O)N[C@@H](CO)C(=O)N[C@@H](CO)C(=O)NCC(=O)N[C@@H](C)C(=O)N1CCC[C@H]1C(=O)N1CCC[C@H]1C(=O)N1CCC[C@H]1C(=O)N[C@@H](CO)C(=O)O)C(C)C [AT721] (H-EGTFISEYSI[Aib]LEKIK([γGlu-C16 diacid])QQEFVEWLLAQKPSSGAPPPS-OH; N-terminus assumed)
Human GIP receptor; [3]
  Kb: 0.31 nM
[1]; 7.5 mg/ml, Na, MilliQ (8)
  Avr lag time (h): fnd (Fnd = fibrils not detected within experiment time (96 hours) with agitation.)
[1]; 15 mg/ml, Na, MilliQ (8)
  Avr lag time (h): fnd (Fnd = fibrils not detected within experiment time (96 hours) with agitation.)
[2]; 7.5 mg/ml, Na, MilliQ (8)
  Visual appearance: Clear
[2]; 15 mg/ml, Na, MilliQ (8)
  Visual appearance: Clear

## CC[C@H](C)[C@H](NC(=O)[C@H](CCCCN)NC(=O)[C@H](CC(=O)O)NC(=O)[C@H](CCSC)NC(=O)[C@H](C)NC(=O)[C@H](CCCCNC(=O)CCCCCCCCCCCCCCC(=O)O)NC(=O)[C@H](CO)NC(=O)[C@H](Cc1ccc(O)cc1)NC(=O)[C@H](CC(=O)O)NC(=O)[C@H](CO)NC(=O)[C@@H](NC(=O)[C@H](Cc1ccccc1)NC(=O)[C@@H](NC(=O)CNC(=O)[C@@H](N)CCC(=O)O)[C@@H](C)O)[C@@H](C)CC)C(=O)N[C@@H](Cc1c[nH]cn1)C(=O)N[C@@H](CCC(N)=O)C(=O)N[C@@H](CCC(N)=O)C(=O)N[C@@H](CC(=O)O)C(=O)N[C@@H](Cc1ccccc1)C(=O)N[C@H](C(=O)N[C@@H](CCC(=O)O)C(=O)N[C@@H](Cc1c[nH]c2ccccc12)C(=O)N[C@@H](CC(C)C)C(=O)N[C@@H](CC(C)C)C(=O)N[C@@H](C)C(=O)N[C@@H](CCC(N)=O)C(=O)N[C@@H](CCCCN)C(=O)N1CCC[C@H]1C(=O)N[C@@H](CO)C(=O)N[C@@H](CO)C(=O)NCC(=O)N[C@@H](C)C(=O)N1CCC[C@H]1C(=O)N1CCC[C@H]1C(=O)N1CCC[C@H]1C(=O)N[C@@H](CO)C(=O)O)C(C)C [AT739] (H-EGTFISDYSK(C16 diacid)AMDKIHQQDFVEWLLAQKPSSGAPPPS-OH; N-terminus assumed)
Human GIP receptor
  Kb: 11 nM
[1]; 1 mg/ml, TFA, Phosphate (7.4)
  Avr lag time (h): fnd (Fnd = fibrils not detected within experiment time (96 hours) with agitation.)
[2]; 1 mg/ml, TFA, Phosphate (7.4)
  Visual appearance: Clear
